Laboratory results published in patent US7979117B2, “Device and method for controlled delivery of active substance into the skin” (Power Paper Ltd., priority 2001, dated 2011).
Where “and” joins values, the source holds several entries; their conditions need not be identical. Equal values may be shown once.

Assay: Dual chamber in-vitro skin penetration test (iontophoresis vs passive)
Type: in vitro ADME, Porcine
Text: One type of skin penetration test can be implemented in-vitro by using excised swine skin membrane with two electrodes placed thereon, with one of the two being associated with a formulation including an active substance to be delivered by iontophoresis, as described, for example in: P. Glikfeld, C. Cullander, R. S. Hinz, and R. H. Guy, A new system for in vitro studies of iontophoresis, Pharm. Res. 5: 443-446 (1988) (hereinafter, the “dual chamber in-vitro test”). Description of the experimental design of an in-vitro skin penetration test is provided in Example No. 1. In a non-limiting way, any of the following parameters can be varied and tested with this model: voltage, current and current density, concentration of an active substance, pH, viscosity, concentration of a buffer, concentration of an electrolyte, concentration of a polymeric substance which is used to render certain rheological properties, conductivity, viscosity and adhesiveness. The influence of pore size and density of a substrate can also be assessed in a modified in-vitro skin penetration test. Delivery of the active substance into and through the skin will be determined as a function of the time of current passage.
Example No. 1 was devised to define, in a preclinical study, the optimal iontophoretic parameters for the delivery of an active substance contained in a cosmetic carrier into the skin, while minimizing systemic exposure.
In general, the active agent is formulated in a buffered, conducting solution, gel, cream, or any other optional cosmetically acceptable carrier. Competing ions are kept to a minimum. Iontophoresis is performed in vertical diffusion cells, in which the skin membrane separates the physically- and electrically-isolated anode and cathode chambers from the receptor phase, or in modified side-by-side cells of a newer design. The anode and receptor compartments contain physiologically-buffered saline at pH 7, while the cathode compartment is charged with the gel containing the active.
The skin membrane is from the porcine ear (Alternatively, human (cadaver) or nude mouse skin can be used). The skin is excised with a dermatome set to an approximate depth of 500 μm. The area of skin exposed in each electrode compartment is 0.64 cm^2.
The electrodes transmitting the electrical current are made of Ag/AgCl or graphite, prepared in a customary fashion. A constant current is passed between the electrodes and controlled by a custom-built power supply (Professional Design and Development Services, Berkeley, Calif.).
In each study, preparation, with electrical current (“Iontophoretic System”) and without electrical current (“Control”), are tested. Exposure period is 20-30 minutes. Six replicates are performed per experiment. Prior to each experiment, the viability and integrity of skin barrier function is checked via a measurement of transepidermal water loss (TEWL).
At the end of the exposure period, the entire receptor compartment is drained and the solution reserved for subsequent analysis of the active agent(s) (“Active”). The skin is removed, and the surfaces carefully cleaned and dried. Subsequently, the stratum corneum (“SC”) beneath the cathode chamber is removed by repeated 15 adhesive tape strippings (“TS”). The Active is extracted from the respective tapes and assayed to yield a total uptake of the compound into the SC. The remaining SC-stripped skin from beneath the cathode is then appropriately treated so as to recover the Active, which had crossed the SC barrier, during iontophoresis, and reached into the underlying epidermis/upper dermis. The Active is determined quantitatively using customary analytical procedures (e.g., HPLC, UV spectrum, GC, radiolabeled detection, etc.), as applicable.
Results of an In-Vitro Skin Penetration Test for Magnesium Ascorbyl Phosphate (MAP) Aqueous Solution, Using the “Dual Chamber In-Vitro Test”
Active Substance: Magnesium Ascorbyl Phosphate (MAP) (Vitamin C Derivative) […]

[1] = Iontophoretic System, 3% in distilled water, 25 mg applied, pH 7.0-7.4, 0.150 mA/cm^2, 30 minutes, individual cell
[2] = Iontophoretic System, 3%, 0.150 mA/cm^2, 30 minutes, Mean of 6 cells
[3] = Passive Control (without electrical current)

In the case of O=C1O[C@H]([C@@H](O)CO)C([O-])=C1OP(=O)([O-])[O-].O=C1O[C@H]([C@@H](O)CO)C([O-])=C1OP(=O)([O-])[O-].[Mg+2].[Mg+2].[Mg+2] [MAP, Magnesium Ascorbyl Phosphate], the “Amount of Active, Receptor” value [1] is reported as 47.66 µg and 122.75 µg and 14.62 µg and 23.47 µg and 24.99 µg and 25.43 µg, the “Amount of Active, TS # 1, 2” value [1] is reported as 92.41 µg and 50.37 µg and 103.88 µg and 132.28 µg and 48.43 µg and 89.89 µg and the “Amount of Active, TS # 3-15” value [1] is reported as 89.22 µg and 2.94 µg and 115.27 µg and 43.90 µg and 8.71 µg and 50.43 µg. For the same compound, the “Amount of Active, TS Total” value [1] was 181.63 µg and 53.31 µg and 219.15 µg and 176.18 µg and 57.14 µg and 140.32 µg, the “Amount of Active, Viable Skin” value [1] was 33.94 µg and 4.55 µg and 56.67 µg and 8.44 µg and 19.24 µg and 10.30 µg and the “Total TS # 3-15 + Viable Skin” value [1] was 123.16 µg and 7.49 µg and 171.94 µg and 52.34 µg and 27.95 µg and 60.73 µg. The “Total TS # 3-15 + Viable skin” value [1] was 183.82 μg/cm2 and 11.18 μg/cm2 and 256.63 μg/cm2 and 78.12 μg/cm2 and 41.72 μg/cm2 and 10.89 μg/cm2, the “Amount of Active, Receptor (transferred through the skin)” value [2] was 43 µg and 43.15 µg and the “Amount of Active, TS # 1, 2” value [2] was 73.77 µg. The “Amount of Active, TS # 3-15” value [2] was 42.06 µg, the “Amount of Active, TS Total” value [2] was 115.82 µg and the “Amount of Active, Viable Skin” value [2] was 23 µg and 23.07 µg. The “Total TS # 3-15 + Viable Skin (amount in the skin)” value [2] was 65 µg and 65.13 µg, the “Total TS # 3-15 + Viable skin” value [2] was 97.21 μg/cm2 and the “total amount found in the skin (TS#1-15+ Viable skin)” value (Iontophoretic System, 3%, 0.150 mA/cm^2, 30 minutes, mean) was 139 µg. The “mean amount found in the receptor” value [3] was 2 µg, the “mean amount found in the viable skin” value [3] was 1 µg and the “mean total amount found in tape strippings #1-15, compared with Iontophoretic System” value [3] was “in the same order of magnitude”.
